From article PMC5218480 (PLoS ONE, 2017)

Test system: MV-4-11 cells
Assay: Gene expression microarray analysis (Affymetrix PrimeView) and GSEA
Assay type: cell-based, human
Set-up: RFU PODN (11730768_x_at) / Fold change /veh PODN (11730768_x_at) / RFU LINC00158 (11744669_a_at) / Fold change /veh LINC00158 (11744669_a_at) / RFU DUSP10 (11751237_a_at) / Fold change /veh DUSP10 (11751237_a_at) / RFU ID3 (11757404_x_at) / Fold change /veh ID3 (11757404_x_at) / RFU PLEKHG5 (11737974_s_at) / Fold change /veh PLEKHG5 (11737974_s_at) / RFU LRRC4B (11730491_at) / Fold change /veh LRRC4B (11730491_at) / RFU GIMAP4 (11747438_a_at) / Fold change /veh GIMAP4 (11747438_a_at) / RFU KRT8 (11758183_x_at) / Fold change /veh KRT8 (11758183_x_at) / RFU CNN1 (11734310_a_at) / Fold change /veh CNN1 (11734310_a_at) / RFU VPS37D (11726825_at) / Fold change /veh VPS37D (11726825_at) / RFU C10orf10 (11716522_x_at) / Fold change /veh C10orf10 (11716522_x_at) / RFU KIR2DL2 /// KIR2DL4 /// KIR2DL5A /// KIR2DL5B /// KIR2DS1 /// KIR2DS2 /// KIR2DS3 /// KIR2DS4 /// KIR3DL3 /// KIR3DL3 /// KIR3DS1 (11738374_at) / Fold change /veh KIR2DL2 /// KIR2DL4 /// KIR2DL5A /// KIR2DL5B /// KIR2DS1 /// KIR2DS2 /// KIR2DS3 /// KIR2DS4 /// KIR3DL3 /// KIR3DL3 /// KIR3DS1 (11738374_at) / RFU C1QL1 (11718748_at) / Fold change /veh C1QL1 (11718748_at) / RFU TMPRSS4 (11747572_a_at) / Fold change /veh TMPRSS4 (11747572_a_at) / RFU HAMP (11756126_x_at) / Fold change /veh HAMP (11756126_x_at) / RFU RNFT2 (11725882_a_at) / Fold change /veh RNFT2 (11725882_a_at) / RFU NR4A2 (11747474_a_at) / Fold change /veh NR4A2 (11747474_a_at) / RFU ABCC12 (11746883_a_at) / Fold change /veh ABCC12 (11746883_a_at) / RFU TMEM136 (11760407_x_at) / Fold change /veh TMEM136 (11760407_x_at) / RFU CLDN22 /// WWC2 (11732394_at) / Fold change /veh CLDN22 /// WWC2 (11732394_at) / RFU HLA-DPB1 (11760878_x_at) / Fold change /veh HLA-DPB1 (11760878_x_at) / RFU SPINT1 (11716480_a_at) / Fold change /veh SPINT1 (11716480_a_at) / RFU GAP43 (11754022_s_at) / Fold change /veh GAP43 (11754022_s_at) / RFU A4GNT (11735810_at) / Fold change /veh A4GNT (11735810_at) / RFU PRB3 (11715151_x_at) / Fold change /veh PRB3 (11715151_x_at) / RFU TUBB4B (11761932_at) / Fold change /veh TUBB4B (11761932_at) / RFU CAPN14 (11732068_a_at) / Fold change /veh CAPN14 (11732068_a_at) / RFU TMCC2 (11721928_a_at) / Fold change /veh TMCC2 (11721928_a_at) / RFU IRGQ (11745062_a_at) / Fold change /veh IRGQ (11745062_a_at) / RFU FAM174B (11720279_a_at) / Fold change /veh FAM174B (11720279_a_at) / RFU TMPRSS4 (11748680_a_at) / Fold change /veh TMPRSS4 (11748680_a_at) / RFU FAM212B (11763350_a_at) / Fold change /veh FAM212B (11763350_a_at) / RFU PLEKHG5 (11743358_a_at) / Fold change /veh PLEKHG5 (11743358_a_at) / RFU ZSCAN30 (11745921_a_at) / Fold change /veh ZSCAN30 (11745921_a_at) / RFU CMKLR1 (11741424_a_at) / Fold change /veh CMKLR1 (11741424_a_at) / RFU LOC101060620 /// MAPK8IP1 (11723275_at) / Fold change /veh LOC101060620 /// MAPK8IP1 (11723275_at) / RFU SPTSSB (11747773_x_at) / Fold change /veh SPTSSB (11747773_x_at) / RFU PRSS12 (11739890_at) / Fold change /veh PRSS12 (11739890_at) / RFU BIN1 (11741810_x_at) / Fold change /veh BIN1 (11741810_x_at) / RFU WNT11 (11732464_a_at) / Fold change /veh WNT11 (11732464_a_at) / RFU C10orf10 (11716521_a_at) / Fold change /veh C10orf10 (11716521_a_at) / RFU C5orf56 (11738089_at) / Fold change /veh C5orf56 (11738089_at) / RFU CYB561 (11721691_x_at) / Fold change /veh CYB561 (11721691_x_at) / RFU ANKRD19P (11752326_a_at) / Fold change /veh ANKRD19P (11752326_a_at) / RFU OR2T12 /// OR2T33 /// OR2T8 (11738714_s_at) / Fold change /veh OR2T12 /// OR2T33 /// OR2T8 (11738714_s_at) / RFU VCAN (11748164_a_at) / Fold change /veh VCAN (11748164_a_at) / RFU JSRP1 (11732532_at) / Fold change /veh JSRP1 (11732532_at) / RFU KRTAP10-11 (11738290_x_at) / Fold change /veh KRTAP10-11 (11738290_x_at) / RFU MYO3A (11730013_a_at) / Fold change /veh MYO3A (11730013_a_at) / RFU EBF3 (11725865_a_at) / Fold change /veh EBF3 (11725865_a_at) / RFU CAMK2N1 (11719241_x_at) / Fold change /veh CAMK2N1 (11719241_x_at) / RFU C5orf56 (11738088_a_at) / Fold change /veh C5orf56 (11738088_a_at) / RFU OLFML3 (11715873_a_at) / Fold change /veh OLFML3 (11715873_a_at) / RFU LOC100653217 /// NTM (11731650_a_at) / Fold change /veh LOC100653217 /// NTM (11731650_a_at) / RFU MAPK11 (11762145_a_at) / Fold change /veh MAPK11 (11762145_a_at) / RFU FIZ1 (11724087_x_at) / Fold change /veh FIZ1 (11724087_x_at) / RFU OASL (11726364_x_at) / Fold change /veh OASL (11726364_x_at) / RFU SOX15 (11748057_x_at) / Fold change /veh SOX15 (11748057_x_at) / RFU CD79A (11719716_a_at) / Fold change /veh CD79A (11719716_a_at) / RFU HIST1H1D (11736915_at) / Fold change /veh HIST1H1D (11736915_at) / RFU CASKIN2 (11723855_a_at) / Fold change /veh CASKIN2 (11723855_a_at) / RFU LOC730098 (11760151_x_at) / Fold change /veh LOC730098 (11760151_x_at) / RFU OR4N2 (11742367_at) / Fold change /veh OR4N2 (11742367_at) / RFU PRRT2 (11749266_a_at) / Fold change /veh PRRT2 (11749266_a_at) / RFU SNX32 (11753110_a_at) / Fold change /veh SNX32 (11753110_a_at) / RFU CDHR5 (11726645_a_at) / Fold change /veh CDHR5 (11726645_a_at) / RFU RCAN1 (11760418_a_at) / Fold change /veh RCAN1 (11760418_a_at) / RFU FAM167A (11723789_a_at) / Fold change /veh FAM167A (11723789_a_at) / RFU FAM26E (11764081_at) / Fold change /veh FAM26E (11764081_at) / RFU ISYNA1 (11749810_s_at) / Fold change /veh ISYNA1 (11749810_s_at) / RFU ACY1 (11761880_at) / Fold change /veh ACY1 (11761880_at) / RFU 11764098_at / Fold change /veh 11764098_at / RFU SAMD14 (11745864_x_at) / Fold change /veh SAMD14 (11745864_x_at) / RFU NPB (11741838_a_at) / Fold change /veh NPB (11741838_a_at) / RFU TMPRSS6 (11731388_a_at) / Fold change /veh TMPRSS6 (11731388_a_at) / RFU KRTAP10-2 (11738614_at) / Fold change /veh KRTAP10-2 (11738614_at) / RFU ARHGAP8 /// PRR5-ARHGAP8 (11727945_x_at) / Fold change /veh ARHGAP8 /// PRR5-ARHGAP8 (11727945_x_at) / RFU KRTAP5-7 /// NADSYN1 (11734609_at) / Fold change /veh KRTAP5-7 /// NADSYN1 (11734609_at) / RFU RASL12 (11751679_a_at) / Fold change /veh RASL12 (11751679_a_at) / RFU CDKN2B (11736163_a_at) / Fold change /veh CDKN2B (11736163_a_at) / RFU PRF1 (11729649_at) / Fold change /veh PRF1 (11729649_at) / RFU, ZNF638 /// ZNF638-IT1 / Fold change vs veh, ZNF638 /// ZNF638-IT1 / RFU, PANK3 / Fold change vs veh, PANK3 / RFU, SH3YL1 / Fold change vs veh, SH3YL1 / RFU, ZEB2 / Fold change vs veh, ZEB2 / RFU, NRIP1 / Fold change vs veh, NRIP1 / RFU, PTTG1IP / Fold change vs veh, PTTG1IP / RFU, CAPN2 / Fold change vs veh, CAPN2 / RFU, MED14 / Fold change vs veh, MED14 / RFU, SNORA58 / Fold change vs veh, SNORA58 / RFU, C1orf63 / Fold change vs veh, C1orf63 / RFU, LRRFIP1 / Fold change vs veh, LRRFIP1 / RFU, NDUFAF7 / Fold change vs veh, NDUFAF7 / RFU, SLC12A2 / Fold change vs veh, SLC12A2 / RFU, IBTK / Fold change vs veh, IBTK / RFU, ESF1 / Fold change vs veh, ESF1 / Fold change vs veh, TMEM50B / RFU, TAOK1 / Fold change vs veh, TAOK1 / RFU, ACBD3 / Fold change vs veh, ACBD3 / RFU, TMA16 / Fold change vs veh, TMA16 / RFU, RWDD3 / Fold change vs veh, RWDD3 / RFU, BCAT1 / Fold change vs veh, BCAT1 / RFU, EDEM3 / Fold change vs veh, EDEM3 / RFU, TMEM33 / Fold change vs veh, TMEM33 / RFU, WDR75 / Fold change vs veh, WDR75 / RFU, AHCTF1 / Fold change vs veh, AHCTF1 / RFU, TFRC / Fold change vs veh, TFRC / RFU, ZDHHC17 / Fold change vs veh, ZDHHC17 / RFU, NOM1 / Fold change vs veh, NOM1 / RFU, ARL8B / Fold change vs veh, ARL8B / RFU, ZBTB11 / Fold change vs veh, ZBTB11 / RFU, TAMM41 / Fold change vs veh, TAMM41 / RFU, KIAA1704 /// LOC100996395 / Fold change vs veh, KIAA1704 /// LOC100996395 / RFU, ING1 / Fold change vs veh, ING1 / RFU, TRMT61B / Fold change vs veh, TRMT61B / RFU, FUBP3 / Fold change vs veh, FUBP3 / RFU, TP53 / Fold change vs veh, TP53 / RFU, TNKS2 / Fold change vs veh, TNKS2 / RFU, ZFP14 / Fold change vs veh, ZFP14 / RFU, ACTR2 / Fold change vs veh, ACTR2 / RFU, PPP3R1 / Fold change vs veh, PPP3R1 / RFU, PIK3R1 / Fold change vs veh, PIK3R1 / RFU, HNRNPA1 / Fold change vs veh, HNRNPA1 / RFU, RNF170 / Fold change vs veh, RNF170 / RFU, ZNF28 / Fold change vs veh, ZNF28 / RFU, RNGTT / Fold change vs veh, RNGTT / RFU, OGT / Fold change vs veh, OGT / RFU, BRD1 / Fold change vs veh, BRD1 / RFU, MARS / Fold change vs veh, MARS / RFU, ZNF655 / Fold change vs veh, ZNF655 / RFU, FAHD1 / Fold change vs veh, FAHD1 / RFU, BDP1 / Fold change vs veh, BDP1 / RFU, LRRCC1 / Fold change vs veh, LRRCC1 / RFU, ARID1A / Fold change vs veh, ARID1A / RFU, ZNF146 / Fold change vs veh, ZNF146 / RFU, ZNF330 / Fold change vs veh, ZNF330 / RFU, GPN3 / Fold change vs veh, GPN3 / RFU, C9orf123 / Fold change vs veh, C9orf123 / RFU, N4BP2L2 / Fold change vs veh, N4BP2L2 / RFU, ARFIP1 / Fold change vs veh, ARFIP1 / RFU, FAM179B / Fold change vs veh, FAM179B / RFU, BCL10 / Fold change vs veh, BCL10 / RFU, UHRF1BP1L / Fold change vs veh, UHRF1BP1L / RFU, BET1 / Fold change vs veh, BET1 / RFU, CNOT2 / Fold change vs veh, CNOT2 / RFU, ZNF268 / Fold change vs veh, ZNF268 / Fold change vs veh, ZNF507 / RFU, DGCR2 / Fold change vs veh, DGCR2 / RFU, WDSUB1 / Fold change vs veh, WDSUB1 / Fold change vs veh, HSP90B1 /// MIR3652 / RFU, ADSS / Fold change vs veh, ADSS / RFU, GK / Fold change vs veh, GK / RFU, ZNF148 / Fold change vs veh, ZNF148 / RFU, TAF9 / Fold change vs veh, TAF9 / RFU, SLC1A5 / Fold change vs veh, SLC1A5 / RFU, SLMO2 / Fold change vs veh, SLMO2 / RFU, ABCC4 / Fold change vs veh, ABCC4 / RFU, LOC101060439 /// RAP1B / Fold change vs veh, LOC101060439 /// RAP1B / RFU, RFX7 / Fold change vs veh, RFX7 / RFU, GTPBP10 / Fold change vs veh, GTPBP10 / RFU, CNEP1R1 / Fold change vs veh, CNEP1R1 / RFU, BIVM-ERCC5 /// ERCC5 / Fold change vs veh, BIVM-ERCC5 /// ERCC5 / RFU, ILF3 / Fold change vs veh, ILF3 / RFU 11762660_at / Fold change /veh 11762660_at / RFU VCAN (11757783_s_at) / Fold change /veh VCAN (11757783_s_at) / RFU DDX43 (11728927_at) / Fold change /veh DDX43 (11728927_at) / RFU KRT8 (11758188_x_at) / Fold change /veh KRT8 (11758188_x_at) / RFU NKD1 (11759106_at) / Fold change /veh NKD1 (11759106_at) / RFU SRD5A1 (11742802_a_at) / Fold change /veh SRD5A1 (11742802_a_at) / RFU TPSAB1 /// TPSB2 (11721975_s_at) / Fold change /veh TPSAB1 /// TPSB2 (11721975_s_at) / RFU GSTM3 (11746129_a_at) / Fold change /veh GSTM3 (11746129_a_at) / RFU IL23R (11737362_x_at) / Fold change /veh IL23R (11737362_x_at) / RFU TMEM51 (11727254_a_at) / Fold change /veh TMEM51 (11727254_a_at) / RFU PIWIL2 (11732686_x_at) / Fold change /veh PIWIL2 (11732686_x_at) / RFU ORM1 (11744905_x_at) / Fold change /veh ORM1 (11744905_x_at) / RFU CCDC152 (11743942_at) / Fold change /veh CCDC152 (11743942_at) / RFU ECM1 (11717891_a_at) / Fold change /veh ECM1 (11717891_a_at) / RFU IL23R (11748794_a_at) / Fold change /veh IL23R (11748794_a_at) / RFU TNFAIP8L3 (11732012_x_at) / Fold change /veh TNFAIP8L3 (11732012_x_at) / RFU MBOAT4 (11741988_at) / Fold change /veh MBOAT4 (11741988_at) / RFU 11764193_at / Fold change /veh 11764193_at / RFU TMEM53 (11763286_at) / Fold change /veh TMEM53 (11763286_at) / RFU MAGEB2 (11727129_at) / Fold change /veh MAGEB2 (11727129_at) / RFU TMEM200A (11744735_a_at) / Fold change /veh TMEM200A (11744735_a_at) / RFU CCDC152 (11751479_a_at) / Fold change /veh CCDC152 (11751479_a_at) / RFU FAM211A (11726209_a_at) / Fold change /veh FAM211A (11726209_a_at) / RFU RGS16 (11746705_a_at) / Fold change /veh RGS16 (11746705_a_at) / RFU VCAN (11755009_s_at) / Fold change /veh VCAN (11755009_s_at) / RFU RHOB (11743442_s_at) / Fold change /veh RHOB (11743442_s_at) / RFU RGS16 (11720943_a_at) / Fold change /veh RGS16 (11720943_a_at) / RFU RGS16 (11720944_at) / Fold change /veh RGS16 (11720944_at) / RFU, VPS4B / Fold change vs veh, VPS4B / RFU, CREB1 / Fold change vs veh, CREB1 / RFU, DNAJC13 / Fold change vs veh, DNAJC13 / RFU, GNAQ / Fold change vs veh, GNAQ / RFU, CDK5R1 / Fold change vs veh, CDK5R1 / RFU, ZRANB3 / Fold change vs veh, ZRANB3 / RFU, CUL4A / Fold change vs veh, CUL4A / RFU, CCNY / Fold change vs veh, CCNY / RFU, UFL1 / Fold change vs veh, UFL1 / RFU, COG3 / Fold change vs veh, COG3 / RFU, DIAPH2 / Fold change vs veh, DIAPH2 / RFU, SKA2 / Fold change vs veh, SKA2 / RFU, AFF3 / Fold change vs veh, AFF3 / RFU, LMF1 / Fold change vs veh, LMF1 / RFU, IPO11 / Fold change vs veh, IPO11 / RFU, DFFB / Fold change vs veh, DFFB / RFU, FOXP1 / Fold change vs veh, FOXP1 / RFU, CARD8 / Fold change vs veh, CARD8 / RFU, STRN3 / Fold change vs veh, STRN3 / RFU, ADK / Fold change vs veh, ADK / RFU, RASSF2 / Fold change vs veh, RASSF2 / RFU, WIPF1 / Fold change vs veh, WIPF1 / RFU, LARP1B / Fold change vs veh, LARP1B / RFU, RASA1 / Fold change vs veh, RASA1 / RFU, RB1 / Fold change vs veh, RB1 / RFU, PPFIA1 / Fold change vs veh, PPFIA1 / RFU, MAT2A / Fold change vs veh, MAT2A / RFU, CCT5 / Fold change vs veh, CCT5 / RFU, WDR92 / Fold change vs veh, WDR92 / RFU, CUX1 / Fold change vs veh, CUX1 / RFU, TTC7A / Fold change vs veh, TTC7A / RFU, TMEM135 / Fold change vs veh, TMEM135 / RFU, DEPTOR / Fold change vs veh, DEPTOR / RFU, CPM / Fold change vs veh, CPM / RFU, DNAJB6 / Fold change vs veh, DNAJB6 / RFU, CACNA2D3 / Fold change vs veh, CACNA2D3 / RFU, DTX4 / Fold change vs veh, DTX4 / RFU, TFCP2 / Fold change vs veh, TFCP2 / RFU, GMCL1 /// GMCL1P1 / Fold change vs veh, GMCL1 /// GMCL1P1 / RFU, AEBP2 / Fold change vs veh, AEBP2 / RFU, SNHG1 /// SNORD22 /// SNORD25 /// SNORD26 /// SNORD27 /// SNORD28 /// SNORD29 /// SNORD31 / Fold change vs veh, SNHG1 /// SNORD22 /// SNORD25 /// SNORD26 /// SNORD27 /// SNORD28 /// SNORD29 /// SNORD31 / Fold change (Aza/veh), C12orf56 (ProbeSet 11735607_a_at) / Fold change (ACY-1035/veh), C12orf56 (ProbeSet 11735607_a_at) / Fold change (Aza/veh), FGFR1OP (ProbeSet 11751329_s_at) / Fold change (ACY-1035/veh), FGFR1OP (ProbeSet 11751329_s_at) / Fold change (Aza/veh), VPS36 (ProbeSet 11739960_a_at) / Fold change (ACY-1035/veh), VPS36 (ProbeSet 11739960_a_at) / RFU SYPL1 (11715823_x_at) / Fold change /veh SYPL1 (11715823_x_at) / RFU IGFBP7 (11715501_s_at) / Fold change /veh IGFBP7 (11715501_s_at) / RFU REEP3 (11722064_at) / Fold change /veh REEP3 (11722064_at) / RFU IGLL1 (11728026_x_at) / Fold change /veh IGLL1 (11728026_x_at): dose or concentration left out as unconfirmed
Settings: MV-4-11 cells, 48 hours

Q: `Nc1ccc(-c2cccs2)cc1NC(=O)c1ccc2c(c1)cc(C1CC1)n2CCN1CCOCC1` [ACY-1035] was tested. Which “Fold change /veh ACY1 (11761880_at)” value did it give?
A: 1.19
